Assays:
[1] = molecular target: T1, PAR2 (HT-29 cells, SLIGKV activation) (Homo sapiens, UniProt P55085); test: Ca FLIPR TETRA assay, ANTAGONIST mode, stimulation with 8 μM SLIGKV; format: cell-based; conditions: HT-29 cells
T1 construct: host or cells: HT-29 cells
T1 sequence (P55085 26-397): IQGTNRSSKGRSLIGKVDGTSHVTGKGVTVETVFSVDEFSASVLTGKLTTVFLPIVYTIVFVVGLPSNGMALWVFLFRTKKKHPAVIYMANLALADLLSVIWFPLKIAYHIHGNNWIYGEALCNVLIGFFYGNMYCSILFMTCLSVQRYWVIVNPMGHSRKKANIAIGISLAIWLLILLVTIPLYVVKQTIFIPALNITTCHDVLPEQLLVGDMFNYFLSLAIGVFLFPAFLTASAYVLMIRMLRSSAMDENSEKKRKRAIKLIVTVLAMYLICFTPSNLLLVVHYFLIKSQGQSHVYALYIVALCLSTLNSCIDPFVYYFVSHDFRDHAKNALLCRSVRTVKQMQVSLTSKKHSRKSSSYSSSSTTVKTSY
Outline: (§1)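 FLIPR Tetra Ca2+ read-out in HT-29 cells, calcium 5 dye. Compound preincubation 30 min r.t., with an initial read for agonist activity. Final activator levels: SLIGKV 8 μM, thrombin 1 U/mL, trypsin 3.1 U/mL, UTP 0.6 μM.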

[2] = tested on: Thrombin-stimulated Ca2+ response in HT-29 cells; test: Ca FLIPR TETRA assay, ANTAGONIST mode, stimulation with 1 U/mL Thrombin; format: cell-based, human; conditions: Homo sapiens, HT-29 cells
Outline: as §1

[3] = molecular target: T2, PAR2 (HT-29 cells, trypsin activation) (Homo sapiens, UniProt P55085); test: Ca FLIPR TETRA assay, ANTAGONIST mode, stimulation with 3.1 U/mL trypsin; format: cell-based; conditions: HT-29 cells
T2 construct: host or cells: HT-29 cells
T2 sequence (P55085 26-397): T1 sequence (P55085 26-397)
Outline: as §1

[4] = tested on: UTP-stimulated Ca2+ response in HT-29 cells; test: Ca FLIPR TETRA assay, ANTAGONIST mode, stimulation with 0.6 μM UTP; format: cell-based, human; conditions: Homo sapiens, HT-29 cells
Outline: as §1

[5] = antagonist mode, stimulation with 8 μM SLIGKV
[6] = antagonist mode, stimulation with 1 U/mL Thrombin
[7] = antagonist mode, stimulation with 3.1 U/mL trypsin
[8] = antagonist mode, stimulation with 0.6 μM UTP
[9] = antagonist mode, 1 U/mL Thrombin
[10] = antagonist mode, 3.1 U/mL trypsin
[11] = stimulation with 1 U/mL Thrombin
[12] = stimulation with 3.1 U/mL trypsin

SMILES | IC50 [1, 5] | IC50 [2, 6] | IC50 [3, 7] | IC50 [4, 8] | further results
Cc1ccc(-c2cc(C(C)C)c3nc(C(=O)N4CCN(C(=O)c5cc(C)n[nH]5)CC4(C)C)cn3n2)cc1 [Compound I-330] | 1.7 nM | > 1000 nM | 1.4 nM | > 1000 nM | 
CC(F)(F)c1cc(-c2ccc(F)cc2)nn2cc(C(=O)N3CCNC(=O)C3(C)C)nc12 [Compound I-325] | 55.5 nM | > 1000 nM | 110 nM | > 1000 nM | 
CC(C)(C)c1cc(-c2ccc(F)cc2)nn2cc(C(=O)N3CCN(C(=O)C45CC(C(=O)O)(C4)C5)CC3(C)C)nc12 [Compound I-559] |  |  |  |  | IC50 ([1]; antagonist mode, 8 μM SLIGKV): 20 nM; IC50 [2, 9]: > 1000 nM; IC50 [3, 10]: 51.5 nM; IC50 ([4]; antagonist mode, 0.6 μM UTP): > 1000 nM
CC(C)c1cc(-c2ccc(F)cc2)nn2cc(C(=O)N3CCN(C(=O)CC(C)(C)O)CC3(C)C)nc12 [Compound I-305] | 33 nM | > 1000 nM | 45 nM | > 1000 nM | 
CC1(c2cc(-c3ccc(F)cc3)nn3cc(C(=O)N4CCNC(=O)C4(C)C)nc23)CC1 [Compound I-30, 4-[6-(4-fluorophenyl)-8-(1-methylcyclopropyl)imidazo[1,2-b]pyridazine-2-carbonyl]-3,3-dimethyl-piperazin-2-one] |  |  |  |  | IC50 ([1]; stimulation with 8 μM SLIGKV): 2 nM; IC50 [2, 11]: 25000 nM; IC50 [3, 12]: 3 nM; IC50 ([4]; stimulation with 0.6 μM UTP): 26000 nM
CC(C)c1cc(-c2ccc(F)cc2)nn2cc(C(=O)N3CCN(C(=O)C(O)C(C)C)C[C@H]3C)nc12 (stereo partly shown) [Compound I-195] | 570 nM | > 1000 nM | > 1000 nM | > 1000 nM | 
CCc1cc(-c2ccc(F)cc2)nn2cc(C(=O)N3CCN(C(=O)C(C)(C)O)CC3(C)C)nc12 [Compound I-161] |  |  |  |  | IC50 ([1]; stimulation with 8 μM SLIGKV): 200 nM; IC50 [2, 11]: 140000 nM; IC50 [3, 12]: 330 nM; IC50 ([4]; stimulation with 0.6 μM UTP): 72000 nM
Cc1cc(-c2cc(C(C)C)c3nc(C(=O)N4CCN(C(=O)c5ncccn5)CC4(C)C)cn3n2)ccc1F [Compound I-377] | 19 nM | > 1000 nM | 29 nM | > 1000 nM | 
Cc1n[nH]c(C(=O)N2CCN(C(=O)c3cn4nc(-c5ccc(F)cc5)cc(C(C)C)c4n3)C(C)(C)C2)n1 [Compound I-475] | 3.8 nM | 10300 nM | 7.1 nM | 13700 nM | 
Cc1ccc(-c2cc(C(C)C)c3nc(C(=O)N4CCN(C(=O)c5ccccn5)CC4(C)C)cn3n2)cc1F [Compound I-375] | 2.3 nM | > 1000 nM | 3.8 nM | > 1000 nM | 
CC(C)(C)c1cc(-c2ccc(F)cc2)nn2cc(C(=O)N3CCN(C(=O)CCC(=O)O)CC3(C)C)nc12 [Compound I-560, 4-(4-(8-(tert-butyl)-6-(4-fluorophenyl)imidazo[1,2-b]pyridazine-2-carbonyl)-3,3-dimethylpiperazin-1-yl)-4-oxobutanoic acid] |  |  |  |  | IC50 ([1]; antagonist mode, 8 μM SLIGKV): 4.9 nM; IC50 [2, 9]: > 1000 nM; IC50 [3, 10]: 9.3 nM; IC50 ([4]; antagonist mode, 0.6 μM UTP): > 1000 nM
CC(C)c1cc(-c2ccc(F)c(C(F)(F)F)c2)nn2cc(C(=O)N3CCN(C(=O)C(C)(C)O)CC3(C)C)nc12 [Compound I-222] | 108 nM | > 1000 nM | 205 nM | > 1000 nM | 
CC(C)c1cc(-c2ccc(F)cc2)nn2cc(C(=O)N3CCOC(=O)C3(C)C)nc12 [Compound I-511] | 23 nM | > 1000 nM | 87 nM | > 1000 nM | 
CC(C)c1cc(-c2ccc(F)c(Cl)c2)nn2cc(C(=O)N3CCN(C(=O)[C@H]4C[C@H](C(=O)O)C4)CC3(C)C)nc12 [Compound I-501] | 51 nM | > 1000 nM | 59.5 nM | > 1000 nM | 
Cc1c[nH]nc1C(=O)N1CCN(C(=O)c2cn3nc(-c4ccc(F)cc4)cc(C(C)C)c3n2)C(C)(C)C1 [Compound I-302] | 10.3 nM | 1100 nM | 13 nM | 900 nM | 
CC(C)c1cc(-c2ccc(F)c(Cl)c2)nn2cc(C(=O)N3CCN(C(=O)[C@H]4CC[C@H](C(=O)O)CC4)CC3(C)C)nc12 [Compound I-496] | 55.3 nM | > 1000 nM | 101 nM | > 1000 nM | 
